Experimental data published in patent US20150266850A1 (E.I.DU PONT DE NEMOURS AND COMPANY, priority 2012, published 2015).
Marks after values point to notes of the source that are not given here.

How the values were obtained:
Assay type in all cases: in vivo
[1] = system: Erysiphe graminis f. sp. tritici; experiment: Test A: wheat powdery mildew, preventive spray on wheat seedlings, visual disease rating; conditions: 100 = 100% disease control; for pest or weed control at 50 ppm / pest or weed control at 40 ppm: Blumeria graminis, 192 h
Description: (§1) General protocol for preparing test suspensions for Tests A-E: the test compounds were first dissolved in acetone in an amount equal to 11% of the final volume and then suspended at the desired concentration (in ppm) in acetone and purified water (50/50 mix by volume) containing 250 ppm of the surfactant Trem® 014 (polyhydric alcohol esters). The resulting test suspensions were then used in Tests A-E. Spraying a 200 ppm test suspension to the point of run-off on the test plants was the equivalent of a rate of 800 g/ha.
The test suspension was sprayed to the point of run-off on wheat seedlings. The following day the seedlings were inoculated with a spore dust of Erysiphe graminis f. sp. tritici, (the causal agent of wheat powdery mildew) and incubated in a growth chamber at 20° C. for 8 days, after which time disease ratings were visually made.
(§2) Results for Tests A-E are given in Table A. In the Table, a rating of 100 indicates 100% disease control and a rating of 0 indicates no disease control (relative to the controls). A dash (-) indicates no test results. All results are for 200 ppm except where followed by an “*”, which indicates 40 ppm or “**”, which indicates 50 ppm.

Septoria nodorum = experiment: Test D: wheat glume blotch, preventive spray on wheat seedlings, visual disease rating; conditions: 100 = 100% disease control; for pest or weed control at 50 ppm / pest or weed control at 40 ppm: Parastagonospora nodorum, 216 h
Description: as §1
The test suspension was sprayed to the point of run-off on wheat seedlings. The following day the seedlings were inoculated with a spore suspension of Septoria nodorum (the causal agent of wheat glume blotch) and incubated in a saturated atmosphere at 20° C. for 48 h, and then moved to a growth chamber at 20° C. for 7 days, after which time disease ratings were visually made.
as §2

[2] = system: Puccinia recondita f sp. tritici; experiment: Test B: wheat leaf rust, preventive spray on wheat seedlings, visual disease rating; conditions: 100 = 100% disease control; for pest or weed control at 50 ppm / pest or weed control at 40 ppm: 192 h
Description: as §1
The test suspension was sprayed to the point of run-off on wheat seedlings. The following day the seedlings were inoculated with a spore suspension of Puccinia recondita f sp. tritici (the causal agent of wheat leaf rust) and incubated in a saturated atmosphere at 20° C. for 24 h, and then moved to a growth chamber at 20° C. for 7 days, after which time disease ratings were visually made.
as §2

Septoria tritici = experiment: Test C: wheat leaf blotch, preventive spray on wheat seedlings, visual disease rating; conditions: 100 = 100% disease control; for pest or weed control at 40 ppm: Zymoseptoria tritici, 504 h
Description: as §1
The test suspension was sprayed to the point of run-off on wheat seedlings. The following day the seedlings were inoculated with a spore suspension of Septoria tritici (the causal agent of wheat leaf blotch) and incubated in a saturated atmosphere at 24° C. for 48 h, and then moved to a growth chamber at 20° C. for 19 days, after which time disease ratings were visually made.
as §2

| Compound | Test A disease control rating ([1]; 40 ppm (*)) | Test D disease control rating (Septoria nodorum; 40 ppm (*)) | Test B disease control rating ([2]; 40 ppm (*)) | Test C disease control rating (Septoria tritici; 40 ppm (*)) | further results |
| --- | --- | --- | --- | --- | --- |
| CCOc1ccc(-c2ccn(-c3ccc(C)c(CNC(=O)OC)c3)n2)c(F)c1 [Cmpd 137] | 100* % | 100* % | 100* % | 97* % |  |
| COC(=O)NCc1cc(-c2ccn(-c3ccc(C(C)C)cc3C)n2)ccc1C [Cmpd 133] |  |  |  |  | Test A disease control rating ([1]; 50 ppm (**)): 100** %; Test D disease control rating (Septoria nodorum; 50 ppm (**)): 100** %; Test B disease control rating ([2]; 50 ppm (**)): 100** % |
| COC(=O)NCc1cc(-n2ccc(-c3ccc(C(F)(F)F)cc3OC)n2)ccc1C [Cmpd 101] | 99* % | 100* % | 100* % | 94* % |  |
| CCOc1ccc(-c2ccn(-c3ccc(C)c(CNC(=O)OC)c3)n2)c(C)n1 [Cmpd 142] | 99* % | 100* % | 100* % | 99* % |  |
| COCCOc1ccc(-n2ccc(-c3ccc(C)c(CNC(=O)OC)c3)n2)c(C)c1 [Cmpd 126] | 87* % |  | 100* % |  |  |
| COC(=O)NCc1cc(-n2ncc(-c3ccc(Br)cc3OC)n2)ccc1C [Cmpd 141] | 99* % | 100* % | 100* % | 97* % |  |
| CCOc1ccc(-n2ccc(-c3ccc(C)c(CNC(=O)OC)c3)n2)c(C)c1 [Cmpd 120] |  |  |  |  | Test A disease control rating ([1]; 50 ppm (**)): 100** %; Test B disease control rating ([2]; 50 ppm (**)): 100** %; Test C disease control rating (Septoria tritici; 50 ppm (**)): 99** % |
| CCOc1cc(F)ccc1-c1ccn(-c2ccc(C)c(CNC(=O)OC)c2)n1 [Cmpd 129] | 98* % | 100* % | 100* % | 68* % |  |
| COC(=O)NCc1cc(-c2ccn(-c3ccc(OCC(C)C)cc3C)n2)ccc1C [Cmpd 134] |  |  |  |  | Test A disease control rating ([1]; 50 ppm (**)): 99** %; Test D disease control rating (Septoria nodorum; 50 ppm (**)): 100** %; Test B disease control rating ([2]; 50 ppm (**)): 100** % |
| COC(=O)NCc1cc(-n2ccc(-c3ccc(Br)cc3C)n2)ccc1C [Cmpd 102] | 99* % | 100* % | 100* % | 98* % |  |
| methyl N-[[5-[3-(6-methoxy-2-methyl-3-pyridinyl)-1H-pyrazol-1-yl]-2-methylphenyl]methyl]carbamate [Compound 115] | 100* % | 100* % | 100* % | 99* % |  |
| COC(=O)NCc1cc(-n2ncc(-c3ccc(OC)nc3OC)n2)ccc1C [Compound 136, methyl N-[[5-[4-(2,6-dimethoxy-3-pyridinyl)-2H-1,2,3-triazol-2-yl]-2-methylphenyl]methyl]carbamate] |  |  |  |  | pest or weed control at 50 ppm ([1]; 50 ppm (**)): 99%; pest or weed control at 50 ppm (Septoria nodorum; 50 ppm (**)): 100%; pest or weed control at 50 ppm ([2]; 50 ppm (**)): 100% |
| COC(=O)NCc1cc(-n2ccc(-c3ccc(C(C)=O)cc3C)n2)ccc1C [Cmpd 140] | 91* % | 100* % | 100* % | 94* % |  |
| COC(=O)NCc1cc(-n2ncc(-c3ccc(OCC#N)cc3C)n2)ccc1C [Cmpd 105] | 90* % | 100* % | 99* % | 86* % |  |
| CCOc1ccc(-c2ccn(-c3ccc(C)c(CNC(=O)OC)c3)n2)c(C)c1 [Cmpd 128] | 99* % | 100* % | 100* % | 98* % |  |
| C#Cc1ccc(-c2ccn(-c3ccc(C)c(CNC(=O)OC)c3)n2)c(C)c1 [Cmpd 112] | 100* % | 100* % | 100* % | 97* % |  |
| COC(=O)NCc1cc(-n2ncc(-c3ccc(OC)nc3OC)[n+]2[O-])ccc1C [Compound 135] |  |  |  |  | pest or weed control at 50 ppm ([1]; 50 ppm (**)): 99%; pest or weed control at 50 ppm (Septoria nodorum; 50 ppm (**)): 100%; pest or weed control at 50 ppm ([2]; 50 ppm (**)): 100% |
| C=Cc1ccc(-c2ccn(-c3ccc(C)c(CNC(=O)OC)c3)n2)c(C)c1 [Cmpd 113] | 40* % | 100* % | 99* % | 74* % |  |
| COC(=O)NCc1cc(-n2ncc(-c3ccc(OC)cc3Br)n2)ccc1C [Cmpd 143] | 99* % | 100* % | 100* % | 99* % |  |
| methyl N-[[5-[1-(2,6-dimethoxy-3-pyridinyl)-1H-pyrazol-3-yl]-2-methylphenyl]-methyl]carbamate [Compound 116] |  |  |  |  | Test A disease control rating ([1]; 50 ppm (**)): 100** %; Test B disease control rating ([2]; 50 ppm (**)): 100** %; Test C disease control rating (Septoria tritici; 50 ppm (**)): 99** % |
| COC(=O)NCc1cc(-c2ccn(-c3ccc(OC4CCCCC4)cc3C)n2)ccc1C [Cmpd 122] | 87* % |  | 91* % |  |  |
| COC(=O)NCc1cc(-n2ncc(-c3ccc(C(F)(F)F)cc3C(F)(F)F)n2)ccc1C [Cmpd 132] |  |  |  |  | Test A disease control rating ([1]; 50 ppm (**)): 100** %; Test D disease control rating (Septoria nodorum; 50 ppm (**)): 100** %; Test B disease control rating ([2]; 50 ppm (**)): 99** % |
| COC(=O)NCc1cc(-n2ccc(-c3ccc(C)nc3C)n2)ccc1C [Compound 130, methyl N-[[5-[3-(2,6-dimethyl-3-pyridinyl)-1H-pyrazol-1-yl]-2-methylphenyl]methyl]carbamate] |  |  |  |  | pest or weed control at 40 ppm ([1]; 40 ppm (*)): 96%; pest or weed control at 40 ppm (Septoria nodorum; 40 ppm (*)): 100%; pest or weed control at 40 ppm ([2]; 40 ppm (*)): 99%; pest or weed control at 40 ppm (Septoria tritici; 40 ppm (*)): 86% |
| COC(=O)NCc1cc(-c2ccn(-c3ccc(C)nc3C)n2)ccc1C [Compound 114, methyl N-[[5-[1-(2,6-dimethyl-3-pyridinyl)-1H-pyrazol-3-yl]-2-methylphenyl]methyl]carbamate] |  |  |  |  | pest or weed control at 40 ppm ([1]; 40 ppm (*)): 90%; pest or weed control at 40 ppm (Septoria nodorum; 40 ppm (*)): 100%; pest or weed control at 40 ppm ([2]; 40 ppm (*)): 100%; pest or weed control at 40 ppm (Septoria tritici; 40 ppm (*)): 86% |
| COC(=O)NCc1cc(-c2ccn(-c3ccc(OC(F)(F)F)cc3C)n2)ccc1C [Compound 123, methyl N-[[2-methyl-5-[1-[2-methyl-4-(trifluoromethoxy)phenyl]-1H-pyrazol-3-yl]phenyl]methyl]carbamate] |  |  |  |  | pest or weed control at 40 ppm ([1]; 40 ppm (*)): 99%; pest or weed control at 40 ppm ([2]; 40 ppm (*)): 100% |
| CCCOc1ccc(-n2ccc(-c3ccc(C)c(CNC(=O)OC)c3)n2)c(C)c1 [Cmpd 125] | 98* % |  | 100* % |  |  |
| COC(=O)NCc1cc(-c2ccn(-c3ccc(C(C)(C)C)cc3C)n2)ccc1C [Cmpd 124] | 99* % |  | 100* % |  |  |
| COC(=O)NCc1cc(-c2ccn(-c3ccc(OC(C)C)cc3C)n2)ccc1C [Cmpd 121] |  |  |  |  | Test A disease control rating ([1]; 50 ppm (**)): 100** %; Test B disease control rating ([2]; 50 ppm (**)): 100** %; Test C disease control rating (Septoria tritici; 50 ppm (**)): 98** % |
